Test results published in ChEMBL document CHEMBL1131589 (J Med Chem, 1998).
pKi: −log10 of the molar value.

Biological target: Cannabinoid receptor 1 (Rattus norvegicus, UniProt P20272)
Test: Displacement of [3H]CP-55940 binding to Cannabinoid receptor 1 in rat brain membranes
Type: cell membranes

Cannabinoid receptor 1, sequence (P20272 whole entry): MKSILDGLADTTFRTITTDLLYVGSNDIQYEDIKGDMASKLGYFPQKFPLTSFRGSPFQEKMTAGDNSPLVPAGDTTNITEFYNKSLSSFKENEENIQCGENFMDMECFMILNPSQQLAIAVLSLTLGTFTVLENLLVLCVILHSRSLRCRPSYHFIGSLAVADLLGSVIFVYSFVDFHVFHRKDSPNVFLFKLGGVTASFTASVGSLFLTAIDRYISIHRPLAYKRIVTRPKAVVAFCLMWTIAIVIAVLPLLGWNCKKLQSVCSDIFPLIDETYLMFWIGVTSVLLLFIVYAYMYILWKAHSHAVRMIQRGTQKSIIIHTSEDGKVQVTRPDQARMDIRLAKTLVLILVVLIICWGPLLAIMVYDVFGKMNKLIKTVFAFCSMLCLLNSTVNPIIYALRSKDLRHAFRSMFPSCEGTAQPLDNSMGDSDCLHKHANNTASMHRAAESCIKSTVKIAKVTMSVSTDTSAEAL

SMILES	pKi
CCCCCCC(C)(C)c1ccc([C@H]2C[C@@H](O)C[C@H]3CC[C@@H](CO)C[C@@H]32)c(O)c1	9.96
CCCCCCC(C)(C)c1cc(O)c2c(c1)OC(C)(C)[C@@H]1CC=C(CO)C[C@@H]21	9.64
CCCCCCC(C)(C)c1cc(O)c2c(c1)OC(C)(C)[C@H]1CC=C(CO)C[C@H]21 [DEXANABINOL]	6.44
